From PMC10932284 (International Journal of Molecular Sciences, 2024)
Like-named read-outs stand apart in the source and are kept apart here.

Legend:
MtCA1 = molecular target: T1, MtCA1 (Mycobacterium tuberculosis, UniProt P9WPJ7); assay: biochemical; conditions: for Selectivity Index (SI) hCA II/MtCA1: ratio of Ki values
T1 construct: made in house

MtCA2 = molecular target: T2, MtCA2 (Mycobacterium tuberculosis, UniProt P9WPJ9); assay: stopped-flow CO2 hydrase assay, MtCA2; format: biochemical; conditions: for Selectivity Index (SI) hCA II/MtCA2: ratio of Ki values
T2 construct: made in house
Procedure: BTDs 2a-2t were submitted to a stopped-flow CO2 hydrase kinetic assay to evaluate the inhibitory profile against the mycobacterial β-CAs MtCA1, MtCA2, MtCA3 (Table 1), in comparison to the inhibitory effect on hCA I and II, which were selected due to their abundance in the human organism and thus off-target in this study.
A stopped-flow instrument from Applied Photophysics was utilized to assess the inhibition of CA-catalyzed CO2 hydration activity. […] The assay employed 20 mM HEPES (pH 8.3) as a buffer and 20 mM Na2SO4 to maintain constant ionic strength. The investigation focused on the initial rates of the CA-catalyzed CO2 hydration reaction over a duration of 10–100 s. CO2 concentrations ranging from 1.7 to 17 mM were employed to determine kinetic parameters and inhibition constants. For each inhibitor, a minimum of six traces of the initial 5–10% of the reaction were utilized to determine the initial velocity. Uncatalyzed rates were determined in a similar manner and subtracted from the overall observed rates. Inhibitor stock solutions (0.1 mM) were initially prepared in distilled–deionized water, followed by subsequent dilutions up to 0.01 nM with the assay buffer. To allow for the formation of the E-I complex, inhibitor and enzyme solutions were preincubated together for 15 min at room temperature before the assay. The inhibition constants were derived through nonlinear least-squares methods using PRISM and the Cheng–Prusoff equation, as previously reported, representing the mean from at least three different determinations.

MtCA3 = MtCA3 (Mycobacterium tuberculosis, UniProt P96878); assay: biochemical; conditions: for Selectivity Index (SI) hCA II/MtCA3: ratio of Ki values; for Ki: stopped-flow CO2 hydrase assay, mean from three assays
[1] = system: M. tuberculosis strain susceptible to rifampicin and isoniazid; assay: tuberculostatic activity assay, strain susceptible to rifampicin and isoniazid; format: cell-based, Mycobacterium tuberculosis; conditions: for number of M. tuberculosis colonies/standard inoculum volume (0.2 mL): 28 days, 37 °C; for growth inhibition of mycobacteria (in words): 1 µg/mL
hCA I = molecular target: hCA I; parameters: method as in PMID 31794211; conditions: stopped-flow CO2 hydrase assay; cited from earlier work
hCA II = molecular target: hCA II; parameters: method as in PMID 31794211; conditions: stopped-flow CO2 hydrase assay; cited from earlier work
[2] = stopped-flow CO2 hydrase assay, mean from three assays, read-out: Ki MtCA1
[3] = 2 µg/mL in Lowenstein Jensen medium
[4] = 1 µg/mL in Lowenstein Jensen medium

MtCA3, sequence (P96878 550-764 limits assumed): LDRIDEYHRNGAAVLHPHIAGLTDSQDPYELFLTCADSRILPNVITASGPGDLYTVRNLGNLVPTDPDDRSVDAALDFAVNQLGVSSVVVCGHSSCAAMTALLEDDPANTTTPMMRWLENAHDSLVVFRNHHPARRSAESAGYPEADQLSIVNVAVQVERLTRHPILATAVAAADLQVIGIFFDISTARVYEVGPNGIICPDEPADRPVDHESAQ
T2 sequence (P9WPJ9 whole entry, looked up): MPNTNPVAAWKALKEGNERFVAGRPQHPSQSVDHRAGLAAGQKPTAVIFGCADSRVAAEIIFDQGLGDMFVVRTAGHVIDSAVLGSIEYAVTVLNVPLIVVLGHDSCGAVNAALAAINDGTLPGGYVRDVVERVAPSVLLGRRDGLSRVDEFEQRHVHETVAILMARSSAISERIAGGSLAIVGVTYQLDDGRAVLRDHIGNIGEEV
T1 sequence (P9WPJ7 whole entry): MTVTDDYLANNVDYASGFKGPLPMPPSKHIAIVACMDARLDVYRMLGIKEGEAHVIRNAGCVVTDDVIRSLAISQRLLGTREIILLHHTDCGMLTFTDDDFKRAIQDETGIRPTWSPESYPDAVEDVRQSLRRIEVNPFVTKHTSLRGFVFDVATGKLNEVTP

| Structure (SMILES) | Selectivity Index (SI) hCA II/MtCA1 (MtCA1) | Ki (MtCA1; [2]) [nM] | Ki (MtCA2) [nM] | Selectivity Index (SI) hCA II/MtCA2 (MtCA2) | Selectivity Index (SI) hCA II/MtCA3 (MtCA3) | Ki (MtCA3) [nM] | number of M. tuberculosis colonies/standard inoculum volume (0.2 mL) [1, 3] [colonies] | Ki (hCA I) [nM] | Ki (hCA II) [nM] | Ki (MtCA1) [nM] | growth inhibition of mycobacteria (in words) [1] | number of M. tuberculosis colonies/standard inoculum volume (0.2 mL) [1, 4] |
| --- | --- | --- | --- | --- | --- | --- | --- | --- | --- | --- | --- | --- |
| O=C1Nc2ccccc2S(=O)(=O)N1 [2a] | 0.1 | 1680 ± 93 | 68.6 ± 3.1 | 2.2 | 5.2 | 28.7 ± 2.1 | 0 | 866 | 150 | – | – | – |
| Cc1cccc2c1NC(=O)NS2(=O)=O [2b] | 0.1 | 1460 ± 101 | 58.5 ± 1.7 | 2.5 | 6.8 | 21.3 ± 1.7 | – | 969 | 144 | – | – | – |
| Cc1ccc2c(c1)S(=O)(=O)NC(=O)N2 [2c] | 0.8 | – | 41.3 ± 2 | 21.1 | 47.1 | 18.5 ± 1.6 | 0 | 1070 | 872 | 1050 ± 65 | active | 0 colonies |
| Cc1cc(C)c2c(c1)S(=O)(=O)NC(=O)N2 [2d] | – | 934 ± 78 | – | – | – | 15.1 ± 0.9 | 0 | 1270 | 764 | – | active | 0 colonies |
| Cc1ccc(C)c2c1NC(=O)NS2(=O)=O [2e] | <0.2 | > 10000 | 2370 ± 167 | 0.9 | 1.4 | 1540 ± 91 | – | 2540 | 2190 | – | – | – |
| Cc1cc(C)c2c(c1)NC(=O)NS2(=O)=O [2f] | <0.3 | > 10000 | 4480 ± 277 | 0.7 | 1.3 | 2250 ± 168 | – | 1920 | 2940 | – | – | – |
| O=C1Nc2c(F)cccc2S(=O)(=O)N1 [2g] | 0.1 | 1290 ± 96 | 62.9 ± 2.5 | 2.2 | 8.6 | 16.2 ± 1.1 | – | 547 | 140 | – | – | – |
| O=C1Nc2ccc(F)cc2S(=O)(=O)N1 [2h] | – | 1830 ± 137 | 42.5 ± 1.6 | – | – | – | 0 | 1290 | 534 | – | active | 0 colonies |
| O=C1Nc2c(Cl)cccc2S(=O)(=O)N1 [2i] | 0.5 | 1500 ± 89 | 214 ± 13 | 3.2 | 15.5 | 44.3 ± 2.9 | – | 930 | 686 | – | – | – |
| O=C1Nc2ccc(Cl)cc2S(=O)(=O)N1 [2j] | 0.5 | 2460 ± 174 | 67.1 ± 4.3 | 17.0 | 28.7 | 39.8 ± 2.2 | – | 1860 | 1140 | – | – | – |
| O=C1Nc2c(Br)cccc2S(=O)(=O)N1 [2k] | 0.5 | 993 ± 33 | 458 ± 25 | 1.1 | 6.4 | 82.4 ± 4.9 | – | 2320 | 527 | – | – | – |
| O=C1Nc2ccc(Br)cc2S(=O)(=O)N1 [2l] | 0.8 | 2960 ± 213 | 200 ± 14 | 11.8 | 26.2 | 90.1 ± 6.7 | – | 4400 | 2360 | – | – | – |
| COc1ccc2c(c1)S(=O)(=O)NC(=O)N2 [2m] | 0.7 | 2760 ± 166 | 152 ± 11 | 12.6 | 32.5 | 59.2 ± 4.2 | – | 3810 | 1920 | – | – | – |
| O=C1Nc2c(ccc3ccccc23)S(=O)(=O)N1 [2n] | 0.5 | 1040 ± 41 | 995 ± 35 | 0.5 | 4.0 | 120 ± 8 | – | 2070 | 484 | – | – | – |
| CN1C(=O)NS(=O)(=O)c2ccccc21 [2o] | 1.5 | 556 ± 37 | 39.6 ± 2.1 | 21.5 | 26.2 | 32.5 ± 2.4 | – | 3410 | 853 | – | – | – |
| CN1C(=O)NS(=O)(=O)c2cc(Cl)ccc21 [2p] | 2.0 | 1180 ± 75 | 135 ± 9 | 17.3 | 50.8 | 46 ± 3.3 | – | > 10000 | 2340 | – | – | – |
| O=C1NS(=O)(=O)c2cccc3c2N1CC3 [2q] | 1.2 | 883 ± 24 | 599 ± 31 | 1.8 | 13.9 | 76.2 ± 5.6 | – | 6860 | 1060 | – | – | – |
| O=C1Nc2c(C(=O)O)cccc2S(=O)(=O)N1 [2r] | 0.7 | 3280 ± 204 | 105 ± 6 | 23.2 | 37.4 | 65.4 ± 3.9 | – | 5780 | 2450 | – | – | – |
| O=C1Nc2ccc(C(=O)O)cc2S(=O)(=O)N1 [2s] | 1.4 | – | 223 ± 18 | 30.4 | – | 101 ± 5 | – | > 10000 | 6780 | 4870 ± 315 | – | – |
| O=C1Nc2ccc(O)cc2S(=O)(=O)N1 [2t] | 1.3 | 2390 ± 126 | 58.4 ± 4.1 | 51.8 | 66.3 | 45.6 ± 3.5 | 0 | 1890 | 3020 | – | – | 30–100 colonies |
| CC(=O)Nc1nnc(S(N)(=O)=O)s1 [AAZ, acetazolamide, reference compound] | – | – | – | – | – | – | 0 | – | – | – | active | 0 colonies |
| CC(=O)/N=c1/sc(S(N)(=O)=O)nn1C [MTZ, reference compound] | – | – | – | – | – | – | 0 | – | – | – | – | 30–100 colonies |
